± gives the uncertainty stated by the source.
Experiment: xn = mol fraction of the nth substance listed
Conditions: 101 kPa

COCCn1cc[n+](C)c1.N#C[S-] + CC1COC(=O)O1
electrical conductivity (313.15 K, x1 = 0.1022): 1.58 ± 0.032 S/m
viscosity (313.15 K, x1 = 0.1022): 2.14 ± 0.43 mPa·s
electrical conductivity (313.15 K, x1 = 0.2001): 2 ± 0.04 S/m
viscosity (313.15 K, x1 = 0.2001): 2.59 ± 0.52 mPa·s
electrical conductivity (313.15 K, x1 = 0.3021): 1.91 ± 0.038 S/m
viscosity (313.15 K, x1 = 0.3021): 3.65 ± 0.73 mPa·s
electrical conductivity (313.15 K, x1 = 0.3996): 1.75 ± 0.035 S/m
viscosity (313.15 K, x1 = 0.3996): 4.9 ± 0.98 mPa·s
electrical conductivity (313.15 K, x1 = 0.5012): 1.53 ± 0.031 S/m
viscosity (313.15 K, x1 = 0.5012): 6.2 ± 1.2 mPa·s
electrical conductivity (313.15 K, x1 = 0.6015): 1.36 ± 0.027 S/m
viscosity (313.15 K, x1 = 0.6015): 7.9 ± 1.6 mPa·s
electrical conductivity (313.15 K, x1 = 0.7032): 1.19 ± 0.024 S/m
viscosity (313.15 K, x1 = 0.7032): 10.8 ± 2.2 mPa·s
electrical conductivity (313.15 K, x1 = 0.8004): 1.02 ± 0.02 S/m
viscosity (313.15 K, x1 = 0.8004): 14.8 ± 3 mPa·s
electrical conductivity (313.15 K, x1 = 0.9002): 0.893 ± 0.018 S/m
viscosity (313.15 K, x1 = 0.9002): 20.5 ± 4.1 mPa·s
electrical conductivity (313.15 K, x1 = 1): 0.795 ± 0.016 S/m
viscosity (313.15 K, x1 = 1): 28.6 ± 5.7 mPa·s
electrical conductivity (318.15 K, x1 = 0.1022): 1.72 ± 0.034 S/m
viscosity (318.15 K, x1 = 0.1022): 1.94 ± 0.39 mPa·s
electrical conductivity (318.15 K, x1 = 0.2001): 2.21 ± 0.044 S/m
viscosity (318.15 K, x1 = 0.2001): 2.36 ± 0.47 mPa·s
electrical conductivity (318.15 K, x1 = 0.3021): 2.14 ± 0.043 S/m
viscosity (318.15 K, x1 = 0.3021): 3.3 ± 0.66 mPa·s
electrical conductivity (318.15 K, x1 = 0.3996): 1.97 ± 0.039 S/m
viscosity (318.15 K, x1 = 0.3996): 4.28 ± 0.86 mPa·s
electrical conductivity (318.15 K, x1 = 0.5012): 1.75 ± 0.035 S/m
viscosity (318.15 K, x1 = 0.5012): 5.3 ± 1.1 mPa·s
electrical conductivity (318.15 K, x1 = 0.6015): 1.55 ± 0.031 S/m
viscosity (318.15 K, x1 = 0.6015): 6.7 ± 1.3 mPa·s
electrical conductivity (318.15 K, x1 = 0.7032): 1.36 ± 0.027 S/m
viscosity (318.15 K, x1 = 0.7032): 9.1 ± 1.8 mPa·s
electrical conductivity (318.15 K, x1 = 0.8004): 1.2 ± 0.024 S/m
viscosity (318.15 K, x1 = 0.8004): 12.3 ± 2.5 mPa·s
electrical conductivity (318.15 K, x1 = 0.9002): 1.07 ± 0.021 S/m
viscosity (318.15 K, x1 = 0.9002): 17.1 ± 3.4 mPa·s
electrical conductivity (318.15 K, x1 = 1): 0.954 ± 0.019 S/m
viscosity (318.15 K, x1 = 1): 23.7 ± 4.8 mPa·s
electrical conductivity (323.15 K, x1 = 0.1022): 1.86 ± 0.037 S/m
viscosity (323.15 K, x1 = 0.1022): 1.78 ± 0.36 mPa·s
electrical conductivity (323.15 K, x1 = 0.2001): 2.43 ± 0.049 S/m
viscosity (323.15 K, x1 = 0.2001): 2.16 ± 0.43 mPa·s
electrical conductivity (323.15 K, x1 = 0.3021): 2.37 ± 0.047 S/m
viscosity (323.15 K, x1 = 0.3021): 2.97 ± 0.6 mPa·s
electrical conductivity (323.15 K, x1 = 0.3996): 2.19 ± 0.044 S/m
viscosity (323.15 K, x1 = 0.3996): 3.77 ± 0.76 mPa·s
electrical conductivity (323.15 K, x1 = 0.5012): 1.97 ± 0.039 S/m
viscosity (323.15 K, x1 = 0.5012): 4.62 ± 0.92 mPa·s
electrical conductivity (323.15 K, x1 = 0.6015): 1.78 ± 0.036 S/m
viscosity (323.15 K, x1 = 0.6015): 5.8 ± 1.2 mPa·s
electrical conductivity (323.15 K, x1 = 0.7032): 1.57 ± 0.031 S/m
viscosity (323.15 K, x1 = 0.7032): 7.7 ± 1.5 mPa·s
electrical conductivity (323.15 K, x1 = 0.8004): 1.4 ± 0.028 S/m
viscosity (323.15 K, x1 = 0.8004): 10.3 ± 2.1 mPa·s
electrical conductivity (323.15 K, x1 = 0.9002): 1.24 ± 0.025 S/m
viscosity (323.15 K, x1 = 0.9002): 14.3 ± 2.9 mPa·s
electrical conductivity (323.15 K, x1 = 1): 1.12 ± 0.023 S/m
viscosity (323.15 K, x1 = 1): 20 ± 4 mPa·s
electrical conductivity (328.15 K, x1 = 0.1022): 2.02 ± 0.041 S/m
viscosity (328.15 K, x1 = 0.1022): 1.65 ± 0.33 mPa·s
electrical conductivity (328.15 K, x1 = 0.2001): 2.67 ± 0.053 S/m
viscosity (328.15 K, x1 = 0.2001): 1.99 ± 0.4 mPa·s
electrical conductivity (328.15 K, x1 = 0.3021): 2.62 ± 0.053 S/m
viscosity (328.15 K, x1 = 0.3021): 2.68 ± 0.54 mPa·s
electrical conductivity (328.15 K, x1 = 0.3996): 2.43 ± 0.049 S/m
viscosity (328.15 K, x1 = 0.3996): 3.33 ± 0.67 mPa·s
electrical conductivity (328.15 K, x1 = 0.5012): 2.21 ± 0.044 S/m
viscosity (328.15 K, x1 = 0.5012): 4.05 ± 0.81 mPa·s
electrical conductivity (328.15 K, x1 = 0.6015): 1.99 ± 0.04 S/m
viscosity (328.15 K, x1 = 0.6015): 5 ± 1 mPa·s
electrical conductivity (328.15 K, x1 = 0.7032): 1.78 ± 0.036 S/m
viscosity (328.15 K, x1 = 0.7032): 6.6 ± 1.3 mPa·s
electrical conductivity (328.15 K, x1 = 0.8004): 1.6 ± 0.032 S/m
viscosity (328.15 K, x1 = 0.8004): 8.8 ± 1.8 mPa·s
electrical conductivity (328.15 K, x1 = 0.9002): 1.45 ± 0.029 S/m
viscosity (328.15 K, x1 = 0.9002): 12.1 ± 2.4 mPa·s
electrical conductivity (328.15 K, x1 = 1): 1.32 ± 0.026 S/m
viscosity (328.15 K, x1 = 1): 17.2 ± 3.4 mPa·s
electrical conductivity (333.15 K, x1 = 0.1022): 2.17 ± 0.043 S/m
viscosity (333.15 K, x1 = 0.1022): 1.54 ± 0.31 mPa·s
electrical conductivity (333.15 K, x1 = 0.2001): 2.9 ± 0.058 S/m
viscosity (333.15 K, x1 = 0.2001): 1.85 ± 0.37 mPa·s
electrical conductivity (333.15 K, x1 = 0.3021): 2.88 ± 0.058 S/m
viscosity (333.15 K, x1 = 0.3021): 2.42 ± 0.48 mPa·s
electrical conductivity (333.15 K, x1 = 0.3996): 2.68 ± 0.054 S/m
viscosity (333.15 K, x1 = 0.3996): 3 ± 0.6 mPa·s
electrical conductivity (333.15 K, x1 = 0.5012): 2.45 ± 0.049 S/m
viscosity (333.15 K, x1 = 0.5012): 3.57 ± 0.71 mPa·s
electrical conductivity (333.15 K, x1 = 0.6015): 2.24 ± 0.045 S/m
viscosity (333.15 K, x1 = 0.6015): 4.38 ± 0.88 mPa·s
electrical conductivity (333.15 K, x1 = 0.7032): 2.02 ± 0.04 S/m
viscosity (333.15 K, x1 = 0.7032): 5.8 ± 1.2 mPa·s
electrical conductivity (333.15 K, x1 = 0.8004): 1.83 ± 0.037 S/m
viscosity (333.15 K, x1 = 0.8004): 7.5 ± 1.5 mPa·s
electrical conductivity (333.15 K, x1 = 0.9002): 1.65 ± 0.033 S/m
viscosity (333.15 K, x1 = 0.9002): 10.4 ± 2.1 mPa·s
electrical conductivity (333.15 K, x1 = 1): 1.51 ± 0.03 S/m
viscosity (333.15 K, x1 = 1): 14.8 ± 3 mPa·s
